According to patent US20120101147A1, “INHIBITION OF HDAC2 TO PROMOTE MEMORY” (The General Hospital Corporation d/b/a Massachusetts …, priority 2008, published 2012):

Legend:
[1] = system: mice; assay: Context-dependent fear conditioning memory test; format: in vivo, mouse; conditions: C57/BL6 WT mice; 45 mg/kg every day for 10 days; foot shock 0.8 mA
Description: Fear conditioning tests Context-dependent fear conditioning. Training consists of a 3 min exposure of mice to the conditioning box (context) followed by a foot shock (2 sec, 0.5/0.8/1.0 mA, constant current). The memory test was performed 24 hr later by re-exposing the mice for 3 min into the conditioning context. Freezing, defined as a lack of movement except for heart beat and respiration associated with a crouching posture, was recorded every 10 sec by two trained observers (one was unaware of the experimental conditions) during 3 min (a total of 18 sampling intervals). The number of observations indicating freezing obtained as a mean from both observers was expressed as a percentage of the total number of observations.
Chemical administration Suberoylanilide hydroxamic acid (SAHA) was synthesized as described previously in WO 93/07148 PTC/US92/08454. Sodium butyrate was purchased from Sigma (cat.B5887). SAHA and WT-161 were dissolved in DMSO as stock solutions and diluted in saline just before injection. Sodium butyrate was prepared in saline. Mice received intraperitoneal injection daily with either SAHA or saline for 10 days or 21 days.
C57/BL6 WT mice were injected with vehicle or BRD-6929 for 10 days. On day 11, mice were trained in contextual fear conditioning paradigm (Training consisted of a 3 min exposure of mice to the conditioning box (context, TSE) followed by a foot shock (2 sec, 0.8 mA, constant current). One hour after training, mice were injected with BRD-6929 or vehicle. On day 12, mice were returned to the training box and the freezing behavior were monitored and recorded.

[2] = system: Class II HDAC enzymes; assay: In vitro enzymatic inhibition assay against HDAC isoforms; format: biochemical
Description: (§1) The enzymatic inhibitory activity of multiple HDAC inhibitors was assayed against several of the known HDAC isoforms and is shown in FIG. 8. SAHA was included as a reference mixed class I-class II inhibitor. […] All of the BRD numbered compounds are derived from the ortho-anilide class of compounds. Not all compounds from this class are expected to bind the class II HDACs.

[3] = target: T1, HDAC8 (Homo sapiens, UniProt Q9BY41); assay: as above; format: biochemical
T1 sequence (Q9BY41 1-377): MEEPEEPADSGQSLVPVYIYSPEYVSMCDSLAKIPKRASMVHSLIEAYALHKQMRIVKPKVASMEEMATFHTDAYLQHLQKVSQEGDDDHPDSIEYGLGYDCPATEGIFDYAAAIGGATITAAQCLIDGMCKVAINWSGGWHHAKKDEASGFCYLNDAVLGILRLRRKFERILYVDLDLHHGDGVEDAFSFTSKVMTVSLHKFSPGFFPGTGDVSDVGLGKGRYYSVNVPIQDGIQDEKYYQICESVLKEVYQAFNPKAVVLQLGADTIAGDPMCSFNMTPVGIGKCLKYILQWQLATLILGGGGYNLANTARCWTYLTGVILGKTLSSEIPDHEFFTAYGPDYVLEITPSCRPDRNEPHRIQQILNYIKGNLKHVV
Description: as §1

[4] = system: HDAC1,2 vs. HDAC3; assay: Selectivity for HDAC1,2 vs. HDAC3; format: biochemical
Excerpt: All of the BRD numbered compounds are derived from the ortho-anilide class of compounds.
Two sets of data with 3 independent samples/set are presented. Histograms representing the quantification of westerns are also shown.

[5] = system: H4K12 acetylation in primary striatal cells; assay: Western blot of H4K12 acetylation in primary striatal cells; format: cell-based, mouse; conditions: 1 and 10 uM; relative to DMSO
Excerpt: A. Western blots of primary striatal cells isolated from mouse brain that have been treated with HDAC inhibitors. Two sets of data with 3 independent samples/set. B. Histograms represent the quantification of westerns shown in panel A.
Two sets of data with 3 independent samples/set are presented. Histograms representing the quantification of westerns are also shown. Relative to DMSO controls, BRD-6929 has a significant effect on the acetylation levels of histone locus H4K12. BRD-6929 treatment results in a 5-10 fold increase at 1 and 10 uM. BRD-6929 is an HDAC 1,2 selective compound, and has 200× selectivity for HDAC1,2 vs. HDAC3. […] In this case the data was compared to controls: SAHA and BRD-3696 (CI-994). An HDAC1,2 selective compound is as effective at increasing acetylation as an HDAC1,2,3 inhibitor and a pan inhibitor (i.e. SAHA). Inhibiting HDAC1,2 is sufficient to effect increased acetylation at this histone locus.

[6] = system: tetra-acetylated H4; assay: Western blot of tetra-acetylated H4 in primary striatal cells; format: cell-based, mouse; conditions: relative to DMSO controls
Description: (§2) Four compounds were tested including CI-994 (BRD-3696) and SAHA. […] BRD-6929 and BRD-5298 treatment results in a 2-5 fold increase in both marks at 1 and 10 uM.

[7] = system: tetra-acetylated H2B; assay: Western blot of tetra-acetylated H2B in primary striatal cells; format: cell-based, mouse; conditions: relative to DMSO controls
Description: as §2

[8] = system: primary neuronal cultures; assay: Immunofluorescence: overall cell number in primary neuronal cultures; format: cell-based, mouse; conditions: 1 and 10 uM, 6 h
Description: (§3) 1) Compounds were pin transferred from 384-well plates (Abgene) using a 185 nl pin tool using a no touch bottom protocol.
(§4) 1) Media was aspirated using a plate washer (Tecan) protocol that leaves ˜5 ul residual volume and without touching the bottom of plates); or alternatively, wells were gently aspirated to remove media with 12-channel aspirator wand.
(§5) 2) A multichannel pipet or use liquid handling system (e.g. Combi, standard tubing; slow speed) was used to add 75 ul formaldehyde (4% in PBS) and wells incubated 10 min at room temperature.
(§6) 3) Formaldehyde was aspirated and cells rinsed 3 times with 100 ul PBS;
(§7) 4) PBS was aspirated and 100 ul blocking/permeablization buffer (0.1% Triton-X100, 2% BSA, in PBS) added and wells incubate 1 hour at room temperature.
(§8) 5) Blocking buffer was aspirated and 50 ul primary antibody diluted 1:500 in blocking buffer was added and wells incubated overnight at 4 degrees.
(§9) 1) Primary antibody was aspirated and wells rinsed 3 times with 100 ul blocking buffer
(§10) 2) 50 ul of secondary antibody diluted 1:500 and with Hoeschst (1:1000 from 10 mg/mL (16 mM) stock) added and wells incubated 1.5 hours at room temperature covered in foil to prevent photobleaching.
(§11) 3) Wells were rinsed 3 times with 100 ul PBS, and a 100 uls of PBS added and the plates, sealed
(§12) 4) Plates were then read on Acumen/IX Micro

[9] = system: H4K12 acetylation; assay: Immunofluorescence: H4K12 acetylation in primary cultures (striatum); format: cell-based, mouse; conditions: 10 uM, 6 h
Description: as §3, §4, §5, §6, §7, §8, §9, §10, §11, §12

[10] = system: H2B acetylation; assay: Immunofluorescence: H2B acetylation in primary neuronal cell cultures; format: cell-based, mouse; conditions: 1 and 10 uM, 6 h
Description: as §3, §4, §5, §6, §7, §8, §9, §10, §11, §12

[11] = Pharmacokinetics in plasma and brain after single i.p. dose; format: in vivo; conditions: single 45 mg/kg i.p.; C-57 mice
Description: FIG. 17 is the concentration-time curve of BRD-6929 in plasma and brain following single 45 mg/kg i.p. dose in mice.
FIG. 17 represents a summary of the pharmacokinetic data after a single dose of 45 mg/kg BRD-6929 administered systemically via intraperitoneal injection. The concentration time curves for BRD-6929 in the plasma and brain of C-57 mice from 5 min to 24 h are shown.

[12] = system: tetra-acetylated H2B; assay: Western blot of cortex after acute treatment: tetra-acetylated H2B; format: in vivo, mice
Description: (§13) The experimental protocol for acute treatment with BRD-6929 and the corresponding effects on histone acetylation in brain specific regions of adult male C57BL/6J mice is shown in FIG. 18. Crude Protein Lysis Protocol for western blot analysis of specific brain sections.
(§14) a. On ice, thaw frozen tissue and immediately homogenize carefully in 250 uL of ice-cold Suspension Buffer.
(§15) b. As soon as possible, add an equal volume of 2×SDS gel-loading buffer, pipetting up and down to mix.
(§16) 2. Place the sample at 95° C. for 5 min.
(§17) 3. Shear viscous chromosomal DNA by smoothly passaging through 23-25 gauge hypodermic needle (2-3×) or by sonicating briefly (Al used the needle method and it worked fine). Avoid foaming/bubbles.
(§18) 4. Centrifuge the sample at 10,000 g for 10 min at room temperature, transferring supernatant to fresh tube.

[13] = system: H2BK5; assay: Western blot of cortex after acute treatment: H2BK5 acetylation; format: in vivo, mice; conditions: cortex after 1 hour
Description: as §13, §14, §15, §16, §17, §18

[14] = system: tetra-acetylated H2B; assay: Western blot of whole brain after chronic administration: tetra-acetylated H2B; format: in vivo, mice; conditions: every day for 10 days
[15] = system: H4K12 acetylation in HEK293 cells; assay: Western blot of H4K12 acetylation in whole HEK293 cells; format: cell-based; conditions: 10 uM, 6 hour
Description: Series of compounds incubated with whole HEK293 cells at 10 uM for a 6 hour time period. Western blot showing increased acetylation levels over DMSO controls using anti-acetyl H4K12 antibodies and horseradish peroxidase conjugated secondary antibody along with a luminol-based substrate.
Relative to the DMSO control, multiple selectivity profiles are effective in increasing H4K12 acetylation levels. […] BRD-4097 is the negative control.
Standard western blotting methods were used to measure the effects of HDAC inhibitors on histone acetylation marks in […]. Series of compounds were incubated with whole HEK293 cells at 10 uM for a 6 hour time period. […] Quantification of the raw western data (FIG. 10) established that relative to the DMSO control, multiple selectivity profiles are effective in increasing H4K12 acetylation levels, and that HDAC 1,2 and HDAC 1,2,3 selective inhibitors have robust HDAC activity in whole cells on a specific histone loci (H4K12).

Row | Compound | memory in contextual fear conditioning paradigm (% time freezing) [1] | inhibition of Class II HDAC enzymes [2] | inhibition of HDAC8 [3] | selectivity for HDAC1,2 vs. HDAC3 [4] [×] | increase in acetylation of histone locus H4K12 [5] | tetra-acetylated H4 [6] | tetra-acetylated H2B [7] | overall cell number ([8]; primary cultures (cortex and striatum)) | overall cell number ([8]; primary neuronal cell cultures) | H4K12 acetylation [9] | increase in H2B tetra-acetylation ([10]; primary cultures (striatum)) | H2B acetylation ([10]; primary neuronal cell cultures) | blood-brain barrier penetration [11] | brain AUC [11] [µM] | brain Cmax [11] [nM] | increase in H2B (tetra) histone acetylation in cortex ([12]; acute treatment, normalized to histone H3) | levels of tetra-acetylated H2B in the cortex ([12]; single systemic dose, adult male C57BL/6J mice) | increase in acetylation levels for H2BK5 [13] | tetra-acetylated H2B relative to the vehicle control [14] | H4K12 acetylation levels relative to DMSO control [15]
1 | CC(=O)Nc1ccc(C(=O)Nc2cc(-c3cccs3)ccc2N)cc1 [BRD-6929, 4-acetamido-N-(2-amino-5-(thiophen-2-yl)phenyl)benzamide] | improved | does not inhibit | does not inhibit | 200 | 5-10 fold | significantly increased | trend toward increasing | does not cause an increase or decrease | do not cause an increase or decrease | increase | 2-3 fold | significant increase | crosses the blood-brain barrier | 3.9 | 830 | 1.5-2 fold | significant increase | 1.5-2 fold | increase | 
2 | Nc1ccc(-c2cccs2)cc1NC(=O)c1ccc(/C=C/C(=O)NCCc2ccccn2)cc1 [BRD-9853, (E)-N-(2-amino-5-(thiophen-2-yl)phenyl)-4-(3-oxo-3-(2-(pyridin-2-yl)ethylamino)prop-1-enyl)benzamide] |  |  |  |  |  |  |  |  |  |  |  |  |  |  |  |  |  |  |  | minimal activity
